We go through 8 molecules from PMC3426442 (Bioorganic & medicinal chemistry letters, 2012).

One data set deals with NL4-3 V370A. To be noted: V370A versus NL4-3, single cycle infection assay.
The nature of a further data set: in vitro. To be noted: human, microsomes.
The conditions of data set [1]: in vitro; compared to A43D (A43D compared to bevirimat).
For data set [2] the following is noted: ref not given; cited from earlier work.

Molecules are shown by their SMILES.

For `Cc1cn([C@H]2C[C@H](N=[N+]=[N-])[C@@H](CO)O2)c(=O)[nH]c1=O` [AZT, 3′-azido-3′-deoxythymidine], the “times less potent against the resistant variant” value with NL4-3 V370A was found to be 2 times.
As to `C=C(C)[C@@H]1CC[C@]2(C(=O)NCCCCCCCNC(C)=O)CC[C@]3(C)[C@H](CC[C@@H]4[C@@]5(C)CC[C@H](O)C(C)(C)[C@@H]5CC[C@]43C)[C@@H]12` [Compound 1], the microsomal CLint (in general, a measure of how fast metabolising enzymes remove a compound, apart from limits set by blood flow) in “in vitro” was 272 µL/min/mg. Further, in data set [1], the “microsomal / metabolic stability in words” value is “poor”.
The matching figures for `COC(=O)[C@H](CCC(N)=O)NC(=O)CCCCCCCCNC(=O)[C@]12CC[C@@H](C(C)C)[C@@H]1[C@H]1CC[C@@H]3[C@@]4(C)CC[C@H](O)C(C)(C)[C@@H]4CC[C@@]3(C)[C@]1(C)CC2` [Compound 38]: 219 µL/min/mg and “improved metabolic stability”.
In the data set “in vitro”, `C=C(C)[C@@H]1CC[C@]2(C(=O)NCCCCCCCCC(=O)N[C@@H](CCC(N)=O)C(=O)OCc3ccccc3)CC[C@]3(C)[C@H](CC[C@@H]4[C@@]5(C)CC[C@H](O)C(C)(C)[C@@H]5CC[C@]43C)[C@@H]12` [Compound 15] showed a microsomal CLint of 169 µL/min/mg. Moreover, the “microsomal / metabolic stability in words” value in data set [1] is reported as “improved metabolic stability”.
In turn, `C=C(C)[C@@H]1CC[C@]2(C(=O)NCCCCCCCNC(=O)[C@H](CCC(N)=O)NC(=O)OC(C)(C)C)CC[C@]3(C)[C@H](CC[C@@H]4[C@@]5(C)CC[C@H](O)C(C)(C)[C@@H]5CC[C@]43C)[C@@H]12` [Compound 2] gave a microsomal CLint in “in vitro” of 366 µL/min/mg.
Consider `C=C(C)[C@@H]1CC[C@]2(C(=O)NCCCCCCCCC(=O)N[C@@H](CCC(N)=O)C(=O)OC)CC[C@]3(C)[C@H](CC[C@@H]4[C@@]5(C)CC[C@H](O)C(C)(C)[C@@H]5CC[C@]43C)[C@@H]12` [Compound 13], for which the intrinsic clearance (microsomal CLint) in the data set “in vitro” came to 230 µL/min/mg. In addition, the “microsomal / metabolic stability in words” value in data set [1] was “improved metabolic stability”.
In turn, `CC(C)[C@@H]1CC[C@]2(C(=O)NCCCCCCCCC(=O)N[C@@H](CCC(N)=O)C(=O)O)CC[C@]3(C)[C@H](CC[C@@H]4[C@@]5(C)CC[C@H](O)C(C)(C)[C@@H]5CC[C@]43C)[C@@H]12` [Compound 39] showed a microsomal CLint in the data set “in vitro” of 280 µL/min/mg.
Take `CC(C)(C)c1ccc(C(O)CCCN2CCC(C(O)(c3ccccc3)c3ccccc3)CC2)cc1` (stereo not drawn) [Terfenadine]: in data set [2], the half-life in vivo entry is “around 3.5 h”.
